# Source: BindingDB's records for doi:10.1021/jm0613469 (Uppsala University, 2007)
# Residues, ends and D or L forms follow the SMILES beside them.
# Biological target: Type-2 angiotensin II receptor (Sus scrofa)
# Assay: Displacement of [125I]Ang2 from AT2 receptor in pig uterus myometrial membrane
row,SMILES,Ki [µM]
1,O=C(N[C@@H](Cc1ccccc1)C(=O)O)c1cccc(Cn2ccnc2)c1 [(S)-2-(3-((1H-imidazol-1-yl)methyl)benzamido)-3-phenylpropanoic acid],0.0375
2,"CC[C@@H](C)[C@H](NC(=O)[C@@H]1CCCN1C(=O)c1cccc(Cc2cnc[nH]2)c1)C(=O)O [(2S,3R)-2-((S)-1-(3-((1H-imidazol-5-yl)methyl)benzoyl)pyrrolidine-2-carboxamido)-3-methylpentanoic acid]",> 10
3,CC(=O)N[C@@H](Cc1cnc[nH]1)C(=O)N1CCC[C@H]1C(=O)N[C@@H](Cc1ccccc1)C(=O)O [(S)-2-((S)-1-((S)-2-acetamido-3-(1H-imidazol-5-yl)propanoyl)pyrrolidine-2-carboxamido)-3-phenylpropanoic acid] (Ac-His-Pro-Phe-OH),> 10
4,O=C(O)[C@H](Cc1ccccc1)NC(=O)[C@@H]1CCCN1C(=O)c1cccc(Cc2cnc[nH]2)c1 [(S)-2-((S)-1-(3-((1H-imidazol-5-yl)methyl)benzoyl)pyrrolidine-2-carboxamido)-3-phenylpropanoic acid],> 10
5,N[C@@H](Cc1cnc[nH]1)C(=O)N1CCC[C@H]1C(=O)N[C@@H](Cc1ccccc1)C(=O)O [(S)-2-((S)-1-((S)-2-amino-3-(1H-imidazol-5-yl)propanoyl)pyrrolidine-2-carboxamido)-3-phenylpropanoic acid] (H-His-Pro-Phe-OH),> 10
6,"CC[C@H](C)[C@H](NC(=O)[C@@H]1CCCN1C(=O)[C@@H](N)Cc1cnc[nH]1)C(=O)O [(2S,3R)-2-((S)-1-((S)-2-amino-3-(1H-imidazol-5-yl)propanoyl)pyrrolidine-2-carboxamido)-3-methylpentanoic acid] (H-His-Pro-Ile-OH)",> 10
7,"CC[C@@H](C)[C@H](NC(=O)c1cccc(Cn2ccnc2)c1)C(=O)O [(2S,3R)-2-(3-((1H-imidazol-1-yl)methyl)benzamido)-3-methylpentanoic acid]",0.0166
8,O=C(O)[C@H](Cc1ccccc1)NC(=O)[C@@H]1CCCN1C(=O)c1cccc(Cn2ccnc2)c1 [(S)-2-((S)-1-(3-((1H-imidazol-1-yl)methyl)benzoyl)pyrrolidine-2-carboxamido)-3-phenylpropanoic acid],> 10
9,"CC[C@@H](C)[C@H](NC(=O)[C@@H]1CCCN1C(=O)c1cccc(Cn2ccnc2)c1)C(=O)O [(2S,3R)-2-((S)-1-(3-((1H-imidazol-1-yl)methyl)benzoyl)pyrrolidine-2-carboxamido)-3-methylpentanoic acid]",> 10
